In patent US11884647B2, “Compounds and methods for targeting pathogenic blood vessels” (THE REGENTS OF THE UNIVERSITY OF CALIFORNIA, priority 2019, dated 2024):

Assays:
[1] = tested on: tumor endothelial cells (CT26.CL25 colon cancer tumor); assay: Colon CT26 ex vivo model of tumor angiogenesis; format: cell-based; settings: Mus musculus, CT26, 48 h, read-out: Cell death
How it was run: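 Explant pieces of CT26 tumor (about 0.075 mm^3) were embedded in Matrigel and grown in endothelial growth medium at 37 °C for about 7 days until endothelial outgrowth appeared, then treated. Cell death was read about 48 h after drug addition by fluorescein diacetate (live) and propidium iodide (dead) staining with red/green imaging.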

[2] = tested on: tumor endothelial cells (LL/2 lung cancer tumor); assay: Lung LL2 ex vivo model of tumor angiogenesis; format: cell-based, mouse; settings: for cytotoxicity at 20 µM / cytotoxicity at 40 µM: Mus musculus, Endothelial cell, 48 h, read-out: Cell death; for Cell death: Lung LL2 ex vivo, Conc. 40 μm, drug treatment two days
How it was run: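 Mouse LL2 tumor fragments (~0.5×0.5×0.3 mm) embedded in Matrigel and grown in endothelial growth medium at 37° C until endothelial outgrowth (about 4 days) before drug treatment. About 48 h after drug addition, stained 10 min with fluorescein diacetate/propidium iodide; live (green) and dead (red) cells imaged at 2× with fixed channel settings.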

| SMILES | cytotoxicity at 20 µM [1] [%] | cytotoxicity at 20 µM [2] [%] | cytotoxicity at 40 µM [1] [%] | cytotoxicity at 40 µM [2] [%] | Cell death [2] [%] |
| --- | --- | --- | --- | --- | --- |
| CCCCOc1ccc(S(=O)(=O)c2cnc3ccc(OC(F)(F)F)cc3c2N2CCC(N3CCCCC3)CC2)cc1 [compound 119, 4-([1,4′-bipiperidin]-1′-yl)-3-((4-butoxyphenyl)sulfonyl)-6-(trifluoromethoxy)quinoline] | 50 | 100 |  |  |  |
| COc1ccc(S(=O)(=O)c2cnc3ccc(SC)cc3c2N2CCC(N3CCCCC3)CC2)cc1OC [compound 121, 4-([1,4′-bipiperidin]-1′-yl)-3-((3,4-dimethoxyphenyl)sulfonyl)-6-(methylthio)quinoline] |  |  | 40 | 50 |  |
| CCCCOc1ccc(S(=O)(=O)c2cnc3ccc(OC(F)(F)F)cc3c2N2CCCN(C)CC2)cc1 [compound 151, 3-((4-butoxyphenyl)sulfonyl)-4-(4-methyl-1,4-diazepan-1-yl)-6-(trifluoromethoxy)quinoline] |  |  | 100 | 100 |  |
| CCCCOc1ccc(S(=O)(=O)c2cnc3ccc(OC(F)(F)F)cc3c2N2CCC(N3CCC(O)CC3)CC2)cc1 [compound 152, 1′-(3-((4-butoxyphenyl)sulfonyl)-6-(trifluoromethoxy)quinolin-4-yl)-[1,4′-bipiperidin]-4-ol] |  | 20 | 30 |  |  |
| COc1ccc(S(=O)(=O)c2cnc3ccc(SC)cc3c2N2CCCN(C)CC2)cc1OC [compound 154, 3-((3,4-dimethoxyphenyl)sulfonyl)-4-(4-methyl-1,4-diazepan-1-yl)-6-(methylthio)quinoline] |  |  | 30 | 30 |  |
| CCCCN(CCCC)c1c(S(=O)(=O)c2ccc(OC)cc2)cnc2ccc(C(=O)OCC)cc12 [compound 155, ethyl 4-(dibutylamino)-3-((4-methoxyphenyl)sulfonyl)quinoline-6-carboxylate] |  |  | 20 |  | 80 |
| CCOC(=O)c1ccc2ncc(S(=O)(=O)c3ccc(OC)cc3)c(N(CCO)CCO)c2c1 [compound 156, ethyl 4-(bis(2-hydroxyethyl)amino)-3-((4-methoxyphenyl)sulfonyl)quinoline-6-carboxylate] |  |  | 0 |  | 30 |
| CCCCOc1ccc(S(=O)(=O)c2cnc3ccc(C(=O)OCC)cc3c2N2CCC(N3CCCCC3)CC2)cc1 [compound 157, ethyl 4-([1,4′-bipiperidin]-1′-yl)-3-((4-butoxyphenyl)sulfonyl)quinoline-6-carboxylate] |  |  | 60 | 100 |  |
| CCCCOc1ccc(S(=O)(=O)c2cnc3ccc(C(=O)OCC)cc3c2N2CCCN(C)CC2)cc1 [compound 158, ethyl 3-((4-butoxyphenyl)sulfonyl)-4-(4-methyl-1,4-diazepan-1-yl)quinoline-6-carboxylate] |  |  | 100 | 100 |  |
| CCCCOc1ccc(S(=O)(=O)c2cnc3ccc(SC)cc3c2N2CCC(N3CCCCC3)CC2)cc1 [compound 159, 4-([1,4′-bipiperidin]-1′-yl)-3-((4-butoxyphenyl)sulfonyl)-6-(methylthio)quinoline] |  |  | 100 | 100 |  |
| CCCCOc1ccc(S(=O)(=O)c2cnc3ccc(SC)cc3c2N2CCCN(C)CC2)cc1 [compound 160, 3-((4-butoxyphenyl)sulfonyl)-4-(4-methyl-1,4-diazepan-1-yl)-6-(methylthio)quinoline] |  |  | 100 | 100 |  |
| CCCCOc1ccc(S(=O)(=O)c2cnc3ccc(C(=O)OCC)cc3c2N2CCC(N3CCC(O)CC3)CC2)cc1 [compound 161, ethyl 3-((4-butoxyphenyl)sulfonyl)-4-(4-hydroxy-[1,4′-bipiperidin]-1′-yl)quinoline-6-carboxylate] |  |  | 100 | 90 |  |
| CCCCOc1ccc(S(=O)(=O)c2cnc3ccc([S+](C)[O-])cc3c2N2CCCN(C)CC2)cc1 (stereo not drawn) [compound 163, 3-((4-butoxyphenyl)sulfonyl)-4-(4-methyl-1,4-diazepan-1-yl)-6-(methylsulfinyl)quinoline] |  |  | 100 | 95 |  |
| CCCCOc1ccc(S(=O)(=O)c2cnc3ccc(S(C)(=O)=O)cc3c2N2CCCN(C)CC2)cc1 [compound 164, 3-((4-butoxyphenyl)sulfonyl)-4-(4-methyl-1,4-diazepan-1-yl)-6-(methylsulfonyl)quinoline] |  |  | 100 | 95 |  |
| CCN(CC)C(=O)c1ccc2ncc(S(=O)(=O)c3ccc(OC)cc3)c(N3CCCN(C)CC3)c2c1 [compound 165, N,N-diethyl-3-((4-methoxyphenyl)sulfonyl)-4-(4-methyl-1,4-diazepan-1-yl)quinoline-6-carboxamide] |  |  | 10 | 10 |  |
| CCN(CC)CCNC(=O)c1ccc2ncc(S(=O)(=O)c3ccc(OC)cc3)c(N3CCCN(C)CC3)c2c1 [compound 166, N-(2-(diethylamino)ethyl)-3-((4-methoxyphenyl)sulfonyl)-4-(4-methyl-1,4-diazepan-1-yl)quinoline-6-carboxamide] |  |  | 60 | 10 |  |
| CCCCOc1ccc(S(=O)(=O)c2cnc3ccc(C(=O)OCC)cc3c2N2CCSCC2)cc1 [compound 191, ethyl 3-((4-butoxyphenyl)sulfonyl)-4-thiomorpholinoquinoline-6-carboxylate] |  |  | 10 | 30 |  |
| CCCCOc1ccc(S(=O)(=O)c2cnc3ccc(C(=O)NC(C)C)cc3c2N2CCCN(C)CC2)cc1 [compound 192, 3-((4-butoxyphenyl)sulfonyl)-N-isopropyl-4-(4-methyl-1,4-diazepan-1-yl)quinoline-6-carboxamide] |  |  | 10 | 60 |  |
| CCCCOc1ccc(S(=O)(=O)c2cnc3ccc(C(=O)N(CC)CC)cc3c2N2CCC(N3CCCCC3)CC2)cc1 [compound 201, 4-([1,4′-bipiperidin]-1′-yl)-3-((4-butoxyphenyl)sulfonyl)-N,N-diethylquinoline-6-carboxamide] |  |  | 10 | 30 |  |
| CCCCOc1ccc(S(=O)(=O)c2cnc3ccc(C(=O)NCCO)cc3c2N2CCC(N3CCCCC3)CC2)cc1 [compound 202, 4-([1,4′-bipiperidin]-1′-yl)-3-((4-butoxyphenyl)sulfonyl)-N-(2-hydroxyethyl)quinoline-6-carboxamide] |  |  | 10 |  | 30 |
| CCCCOc1ccc(S(=O)(=O)c2cnc3ccc(SC)cc3c2N2CCCN(CCN3CCCCC3)CC2)cc1 [compound 206, 3-((4-butoxyphenyl)sulfonyl)-6-(methylthio)-4-(4-(2-(piperidin-1-yl)ethyl)-1,4-diazepan-1-yl)quinoline] |  | 30 | 100 |  |  |
| CCCCOc1ccc(S(=O)(=O)c2cnc3ccc([S+](C)[O-])cc3c2N2CCC(N3CCCC(O)C3)CC2)cc1 (stereo not drawn) [compound 208, 1′-(3-((4-butoxyphenyl)sulfonyl)-6-(methylsulfinyl)quinolin-4-yl)-[1,4′-bipiperidin]-3-ol] |  |  | 20 | 50 |  |
| CCCCOc1ccc(S(=O)(=O)c2cnc3ccc([S+](C)[O-])cc3c2N2CCCN(CCN3CCCCC3)CC2)cc1 (stereo not drawn) [compound 209, 3-((4-butoxyphenyl)sulfonyl)-6-(methylsulfinyl)-4-(4-(2-(piperidin-1-yl)ethyl)-1,4-diazepan-1-yl)quinoline] |  |  | 90 | 60 |  |
| CCCCOc1ccc(S(=O)(=O)c2cnc3ccc([S+](C)[O-])cc3c2N2CCCN(CCN3CCCC3)CC2)cc1 (stereo not drawn) [compound 210, 3-((4-butoxyphenyl)sulfonyl)-6-(methylsulfinyl)-4-(4-(2-(pyrrolidin-1-yl)ethyl)-1,4-diazepan-1-yl)quinoline] |  |  | 70 | 50 |  |
| CCCCOc1ccc(S(=O)(=O)c2cnc3ccc(C(=O)OCC)cc3c2N2CCC(N3CCCN(C)CC3)CC2)cc1 [compound 211, ethyl 3-((4-butoxyphenyl)sulfonyl)-4-(4-(4-methyl-1,4-diazepan-1-yl)piperidin-1-yl)quinoline-6-carboxylate] |  |  | 100 | 100 |  |
| CCCCOc1ccc(S(=O)(=O)c2cnc3ccc(C(=O)OCC)cc3c2N2CCC(N3CCOCC3)CC2)cc1 [compound 212, ethyl 3-((4-butoxyphenyl)sulfonyl)-4-(4-morpholinopiperidin-1-yl)quinoline-6-carboxylate] |  |  | 10 | 50 |  |
| CCCCOc1ccc(S(=O)(=O)c2cnc3ccc(C(=O)OCC)cc3c2N2CCC(N3CCN(CCO)CC3)CC2)cc1 [compound 214, ethyl 3-((4-butoxyphenyl)sulfonyl)-4-(4-(4-(2-hydroxyethyl)piperazin-1-yl)piperidin-1-yl)quinoline-6-carboxylate] |  |  | 100 | 100 |  |
| CCCCOc1ccc(S(=O)(=O)c2cnc3ccc(C(=O)OCC)cc3c2N2CCC(N3CCC(c4ccccc4)CC3)CC2)cc1 [compound 215, ethyl 3-((4-butoxyphenyl)sulfonyl)-4-(4-phenyl-[1,4′-bipiperidin]-1′-yl)quinoline-6-carboxylate] |  |  | 20 |  | 30 |
| CCCCCCCOc1ccc(S(=O)(=O)c2cnc3ccc(SC)cc3c2N2CCCN(C)CC2)cc1 [compound 218, 3-((4-(heptyloxy)phenyl)sulfonyl)-4-(4-methyl-1,4-diazepan-1-yl)-6-(methylthio)quinoline] |  |  | 90 | 100 |  |
| CCCCCCCOc1ccc(S(=O)(=O)c2cnc3ccc(SC)cc3c2N2CCC(N3CCCCC3)CC2)cc1 [compound 219, 4-([1,4′-bipiperidin]-1′-yl)-3-((4-(heptyloxy)phenyl)sulfonyl)-6-(methylthio)quinoline] |  |  | 90 | 60 |  |
